From patent US20230026969A1, “Oligopeptide, Testing Kit Thereof And Medical Composition Thereof” (China Medical University, priority 2019, published 2023)

Tests used:
[1] = tested on: OA cartilage; test: Immunostaining of human OA tissue sections with phage clones: cartilage; assay type: binding; details: for binding activity to cartilage (DAB intensity): HRP-labeled phage clones
Text: (§1) To examine localization of the targeting phages bound to articular tissues, human OA cartilage specimens were used for examination. Paraffin-embedded human OA tissue, synovium, and meniscus sections were retrieved from specimens of human OA surgical treatment under the approval of the Institutional Review Board of China Medical University Hospital (IRB no. CMUH108-REC1-046 and T-CMU-23728). Written informed consent was obtained, and all human tissue samples were coded for anonymity. All sections were dried, deparaffinized and rehydrated by standard protocols, and subsequently incubated with C5-87, C5-66, C5-83, C5-91, C5-24, E5-8, and C5-46 phage clones, or the control phage (5×10^8 pfu/μl). After washing, the sections were treated with anti-M13 mouse mAb (GE Healthcare) for 1 hour at room temperature. Following several washing steps, a biotin-free super sensitive polymer-HRP detection system (Biogenex, Fremont, Calif., USA) was used to detect immunoreactivity. The slides were lightly counterstained with hematoxylin, mounted with Aquatex (Merck, Darmstadt, Germany), and examined by light microscopy.

[2] = tested on: synovium; test: Immunostaining of human OA tissue sections with phage clones: synovium; assay type: binding; details: HRP-labeled phage clones
Text: as §1

[3] = tested on: hPi-GL; test: Immunocytofluorescent staining of phage clones on hPi-GL chondrocyte cell line; assay type: cell-based, human; details: phage clones on fixed hPi-GL cells
Protocol: For examination of those phage clones, slide-cultured hPi-GL cells were fixed with 4% paraformaldehyde in PBS at room temperature for 15 mins, washed with PBS and permeabilized with 0.1% Triton X-100 at room temperature for 30 mins, blocked for nonspecific binding with 1% BSA/PBST. The slide-cultured hPi-GL cells were separately incubated with 4×10^8 pfu, 8×10^8 pfu, and […] selected phage clones at 4° C. for 1 hour. After removing the unbound phages by washing, the cells were incubated with anti-M13 mouse mAb (GE Healthcare, Milwaukee, Wis., USA) as the primary antibody and R-Phycoerythrin-AffiniPure F(ab′)2 fragment goat anti-mouse IgG (Jackson ImmunoResearch Inc.) as the secondary antibody at room temperature for 1 hour, respectively. Then, washed with PBST, and counterstained with Hoechst 33258 (1 μg/ml; Sigma-Aldrich) at room temperature for 10 mins. The cells were analyzed for phage binding and localization by fluorescence using confocal microscopy (Zeiss LSM 700).

[4] = tested on: meniscus; test: Immunostaining of human OA tissue sections with phage clones: meniscus; assay type: binding; details: HRP-labeled phage clones
Text: as §1

[5] = tested on: OA cartilage; test: Intravital two-photon imaging of rhodamine-labeled peptides injected into rat joints; assay type: in vivo; details: for rhodamine fluorescence (red dots) in cartilage: intra-articular, two-photon microscopy
Protocol: The OA in rat model was established as previous described with slightly modification. In brief, the male SD rats≅300 grams in weight were used in this study. All animal experiments were approved by the China Medical University Committee for the Use and Care of Animals. Rats were kept under standard laboratory conditions (temperature 24° C., 12 h light-dark cycle), fed standard diet and drank tap water. Rats were anesthetized with 2.5% isofluorane (Abott, USA) in 70 ml/min flow rate before every injection. Rat joint OA was induced in the right knees in each group by injecting 0.2 ml of 4% papain solution (Sigma-Aldrich, USA) with 0.1 ml of 0.03 M cysteine (Sigma-Aldrich, USA) as activator. Same amount of saline was injected into the left knees in each group. Injection was repeated on the fourth and seventh days, respectively, and two weeks after the last papain injection, rat knees were removed for histological analysis to confirm the formation of OA. The established OA model in rats was further used in the following experiments for intraarticular injection.
The rhodamine-labeled C5-24 and scrambled peptides were separately injected into rat joints without (control) or with enzyme-induced OA. The C5-24 and scrambled peptides were chemically synthesized as accordingly (ABI, USA), modified with Biotin-PEG2-Iodoacetyl bridge linker (Thermo Fisher Scientific, USA) in HEPES buffer pH 8.0 through click reaction, further linked with avidin labeled rhodamine (Jacksonlmmuno, USA) and subjected to dialysis in ddH2O in M.W. 4K cut-off to remove the unlabeled rhodamine, further lyophilized and stored in −20° C. Aliquots of 1 μg rhodamine-labeled peptides in 40 μl PBS were used for intraarticular injection with using 30 G syringes.
Rat Knees were removed at 1-day post-injection, and both femoral condyles and tibias were cleaned thoroughly, immersed in PBS and sophisticatedly attached on 3.5 cm dish for 2-photon microscopic observation. The microscope system was operated using a near-infrared femtosecond laser (Mira 900, Coherent, USA) at the central wavelength of 810 nm, 76 MHz pulse repetition rate, and 200 fs pulse width for imaging. […] Thus, the wavelength of SHG from collagen fibers is 405 nm, while the TPEF from collagen, elastin, FAD, and NADH is approximately ranging from 450 to 650 nm. All images were obtained by a laser scanning unit (Fluoview 300, Olympus, Japan), a pair of two objective lenses for both lasers focusing and collection of photons (UPlanSApo 20×/0.75, Olympus, Japan), and two photomultiplier tubes respectively for SHG and TPEF detection (R3896, Hamamatsu, Japan). SHG and TPEF were filtered from the intense excitation laser background by a combination of band-pass filter (FF01-405/10, Semrock, USA) and color glass (BG39, Schott, Germany). And, then splitted by a dichroic mirror (FF435-Di01, Semrock, USA) and forward detected. […] Only the extinction ratio of linear polarization larger than 50:1 and the ellipticity of circular polarization (Imax/Imin) less than 1.1 after the focusing objective lens can then be used for the following two-photon imaging. The acquired images were mainly processed and analyzed with ImageJ/FiJi software (National Institutes of Health, Bethesda, Md., USA).

[6] = rhodamine-labeled peptide, OA cartilage
[7] = rhodamine-labeled peptide, control cartilage

Row | Substance | specificity for targeting the territorial region of OA cartilage [1] | binding activity to cartilage (DAB intensity) [1] | binding activity to the synovium (DAB intensity) [2] | binding to hPi-GL (immunocytofluorescent staining, M13-PE) [3] | binding activity to the meniscus (DAB intensity) [4] | overall fluorescent peptides binding area, OA vs control cartilage ([5]; all slices, FIG. 1b) | depth reached in the OA cartilage (z-axial plane) [5, 6] | rhodamine fluorescence (red dots) in cartilage [5, 6] | rhodamine fluorescence (red dots) in cartilage [5, 7] | ability to bind to OA cartilage ([5]; scrambled control peptide)
1 | D L Q Y W Y P I W D T H (DLQYWYPIWDTH; binding to collagen XII; DOMAIN (5)..(9); DOMAIN (10)..(12)) [C5-24, 1, from phage display] | best specificity | superior binding activity | no binding activity | specific and remarkable binding | no binding activity | significant difference | at least 50 μm | red dots were observed | sparse red dots | 
2 | D A Y W H P V W V H D P (DAYWHPVWVHDP; binding to collagen XII; DOMAIN (4)..(8)) [C5-91, 2, from phage display] |  | superior binding activity | no binding activity | specific and remarkable binding | no binding activity |  |  |  |  | 
3 | DYLWQYPDITWH [scrambled peptide, contains all the same amino acids as the original peptide but in new random order, reference compound] |  |  |  |  |  |  |  | sparse red dots | sparse red dots | not able to bind to OA cartilage
